Test [1] concerns the target T1, FtFBPaseII (Francisella tularensis, UniProt Q5NEJ8).
T1 construct: gene gplX
Kind of test: biochemical. The following applies: read-out: % inhibition at 1 mM.

In test [2] the target is T1, FtFBPaseII.

Data on two compounds can be found in publication PMC5698383 (Applied Biochemistry and Biotechnology, 2017).

T1 sequence (Q5NEJ8 1-328): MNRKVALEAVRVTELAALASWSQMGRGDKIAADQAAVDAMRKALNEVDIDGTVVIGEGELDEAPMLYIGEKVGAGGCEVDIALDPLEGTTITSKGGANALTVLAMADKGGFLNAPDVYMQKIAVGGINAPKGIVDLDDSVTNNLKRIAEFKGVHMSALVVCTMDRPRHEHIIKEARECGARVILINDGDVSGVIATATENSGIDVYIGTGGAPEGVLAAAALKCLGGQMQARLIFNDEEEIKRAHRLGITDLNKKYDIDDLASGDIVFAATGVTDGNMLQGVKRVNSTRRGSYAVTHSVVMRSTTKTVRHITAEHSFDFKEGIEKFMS

With `Nc1ncnc2c1ncn2[C@@H]1O[C@H](COP(=O)(O)OP(=O)(O)O)[C@@H](O)[C@H]1O` [Adenosine diphosphate], on FtFBPaseII [1], the inhibition at 1000 µM amounted to 28%. Take `O=P(O)(O)O` [phosphate]: the “% inhibition at 150 μM” value on FtFBPaseII [2] was 69%.

Usually inhibition stands for the relative decrease from the control value, in per cent. As a reminder, the % inhibition is the change of the read-out against control, counted positive when it falls. Read a high % inhibition as a strong effect.
